“And” between values parts separate entries of the source, which are not always exact repeats. Equal entries are not always repeated. Where two headings read alike, the source gives them in different places.
How the values were obtained:
viral RdRp = viral RdRp (Severe acute respiratory syndrome coronavirus 2, UniProt P0DTD1); test: In vitro RdRp activity assay (RNA extension); assay type: biochemical, SARS-CoV-2; conditions: LNF 0.1, 1 and 10 μM; TEMPOL 100 μM
SARS-CoV-2-nLUC [1] = test: microbe, parasite or virus in culture; assay type: cell-based; conditions: for viral inhibition (EC50 curve data): Huh7A2T2, log[Lonafarnib]; for Replication: LNF
in vitro [2] = conditions: human
SARS-CoV-2 Wuhan = assay type: cell-based; conditions: VeroE6, 10 μM LNF, 24 h, DMSO = 100%
[3] = test system: SARS-CoV-2 BA.4.6 (Omicron); assay type: cell-based; conditions: VeroE6, 10 μM LNF, 24 h, DMSO = 100%
in vitro [4] = conditions: human; remark: listed apart in the source
[5] = test system: SARS-CoV-2 spike protein–mediated cell-cell fusion (B.1.617); assay type: cell-based; conditions: 48 h
SARS-CoV-2 [6] = assay type: cell-based; conditions: for percentage replication relative to untreated, infected control: LNF 10 μM
SARS-CoV-2-nLUC [7] = assay type: cell-based; conditions: Nirmatrelvir 0 uM, sheet S3B, replicates
SARS-CoV-2 [8] = assay type: cell-based; conditions: for percentage genome copy number relative to DMSO: 48 h, replicates
[9] = test system: SARS-CoV-2 (Wuhan strain); assay type: cell-based; conditions: replicates
Calu3 cells = conditions: Fig 1F
[10] = test system: SARS-CoV-2 spike protein–mediated cell-cell fusion (Wuhan); assay type: cell-based; conditions: 48 h
[11] = test system: SARS-CoV-2 BA.1 (Omicron); assay type: cell-based; conditions: VeroE6, 10 μM LNF, 24 h, DMSO = 100%

Q: Which “polymerase activity, primer extension” value (viral RdRp) does the source give for NC(=O)N1CCC(CC(=O)N2CCC([C@H]3c4ncc(Br)cc4CCc4cc(Cl)cc(Br)c43)CC2)CC1 [LNF, lonafarnib] here?
A: not affected

Q: What about the “selectivity index (SI = CC50/EC50)” value (SARS-CoV-2-nLUC [1]) of the same compound?
A: greater than 10

Q: What about the “viral inhibition (EC50 curve data)” value (SARS-CoV-2-nLUC [1]; μM 0.39794, 24 h) of the same compound?
A: 31.0378 and 31.6733 and 41.1788 and 40.0144

Q: And the “viral inhibition (EC50 curve data)” value (SARS-CoV-2-nLUC [1]; μM 1, 24 h)?
A: 85.1292 and 83.5424 and 87.1345 and 86.5675

Q: What about the Replication (SARS-CoV-2-nLUC [1]; Log[LNF} mM 0.09691) of the same compound?
A: 60.948 and 56.887 and 64.8083

Q: And the Replication (SARS-CoV-2-nLUC [1]; Log[LNF} mM 0.39794)?
A: 44.056 and 34.731 and 47.009

Q: What about the Replication (SARS-CoV-2-nLUC [1]; Log[LNF} mM 1) of the same compound?
A: 12.4102 and 12.97 and 12.6676

Q: And the Replication (SARS-CoV-2-nLUC [1]; Log[LNF} mM -0.522879)?
A: 64.2793 and 76.4681 and 101.013

Q: And the EC50 (SARS-CoV-2-nLUC [1]; Severe acute respiratory syndrome coronavirus 2, 24 h, Huh7.5A2T2, 24 h, Fig 1G, read-out: EC50)?
A: 3.46 µM

Q: What about the EC50 (SARS-CoV-2-nLUC [1]; Severe acute respiratory syndrome coronavirus 2, 24 h, VeroE6T2, 24 h, Fig 1G, read-out: EC50) of the same compound?
A: 2.24 µM

Q: And the EC50 (SARS-CoV-2-nLUC [1]; Severe acute respiratory syndrome coronavirus 2, Calu-3, 24 h, Calu3, 24 h, Fig 1G, read-out: EC50)?
A: 3.11 µM

Q: What about the EC50 (SARS-CoV-2-nLUC [1]; Severe acute respiratory syndrome coronavirus 2, Vero C1008, 24 h, VeroE6, 24 h, Fig 1G, Fig 5B, read-out: EC50) of the same compound?
A: 2.03 µM

Q: And the EC50 (SARS-CoV-2-nLUC [1]; Severe acute respiratory syndrome coronavirus 2, VeroE6, Huh7.5A2T2, VeroE6T2, Calu3, read-out: EC50 values, range over cell lines)?
A: 2.03 to 3.46 µM

Q: What about the EC50 (SARS-CoV-2-nLUC [1]; VeroE6, 24 h, Fig 1G, Fig 5B, read-out: EC50) of the same compound?
A: 2 µM

Q: And the CC50 (in vitro [2])?
A: > 30 µM

Q: What about the “% Genome” value (SARS-CoV-2 Wuhan) of the same compound?
A: 8.96% and 1.08% and 1.45%

Q: What about the “% Genome” value [3] of the same compound?
A: 1.73% and 1.25% and 0.58%

Q: What about the CC50 (in vitro [4]) of the same compound?
A: > 30 µM

Q: What about the relative luciferase signals ([5]; Conc-mM 0.3 (printed)) of the same compound?
A: 89.139 and 98.5081 and 88.3035 and 100.955

Q: And the relative luciferase signals ([5]; Conc-mM 1 (printed))?
A: 86.0359 and 78.2183 and 102.626 and 94.5695

Q: What about the relative luciferase signals ([5]; Conc-mM 3 (printed)) of the same compound?
A: 65.1493 and 69.6847 and 66.5219 and 76.0103

Q: What about the relative luciferase signals ([5]; Conc-mM 10 (printed)) of the same compound?
A: 35.8018 and 38.2651 and 35.7143 and 29.2527

Q: And the “time-of-addition result” value (SARS-CoV-2 [6])?
A: high efficacy of LNF even if the drug was added 4–24 hours after infection

Q: And the “effect on early events of viral infection” value (SARS-CoV-2 [6]; Calu3, 10 μM)?
A: little or no effect on the early events of viral infection

Q: What about the “effect when drug present during an initial period of viral infection” value (SARS-CoV-2 [6]; VeroE6, 10 μM) of the same compound?
A: 50%

Q: And the “percentage replication relative to untreated, infected control” value (SARS-CoV-2 [6]; VeroE6, drug present (0,4) h)?
A: 51.9274% and 49.1443% and 50.2213% and 50.0245% and 32.7935% and 31.4407% and 36.9633% and 35.1922%

Q: What about the “percentage replication relative to untreated, infected control” value (SARS-CoV-2 [6]; VeroE6, drug present (0,24) h) of the same compound?
A: 1.998% and 1.949% and 1.813% and 1.81% and 1.891% and 1.817% and 1.711% and 1.724%

Q: What about the “percentage replication relative to untreated, infected control” value (SARS-CoV-2 [6]; VeroE6, drug present (2,4) h) of the same compound?
A: 73.914% and 71.0289% and 54.3207% and 56.213% and 71.519% and 69.7874% and 67.1461% and 65.4707%

Q: And the “percentage replication relative to untreated, infected control” value (SARS-CoV-2 [6]; VeroE6, drug present (2,24) h)?
A: 3.962% and 4.023% and 3.69% and 3.889% and 3.6% and 3.5757% and 3.292% and 3.351%

Q: And the “percentage replication relative to untreated, infected control” value (SARS-CoV-2 [6]; VeroE6, drug present (4,24) h)?
A: 4.215% and 4.26% and 5.337% and 5.659% and 5.734% and 5.806% and 3.6315% and 3.627%

Q: And the “percentage replication relative to untreated, infected control” value (SARS-CoV-2 [6]; VeroE6, drug present (-2,0) h)?
A: 98.397% and 97.5913% and 93.062% and 94.6733% and 95.1896% and 94.1548% and 95.9294% and 95.558%

Q: What about the “percentage replication relative to untreated, infected control” value (SARS-CoV-2 [6]; VeroE6, drug present (-2,2) h) of the same compound?
A: 55.8703% and 55.9821% and 50.6506% and 51.7567% and 51.3569% and 50.1515% and 51.6639% and 51.979%

Q: What about the “percentage replication relative to untreated, infected control” value (SARS-CoV-2 [6]; VeroE6, drug present (-2,4) h) of the same compound?
A: 43.6671% and 43.2347% and 41.1828% and 42.7136% and 40.9571% and 40.8036% and 42.923% and 42.3078%

Q: And the “percentage replication relative to untreated, infected control” value (SARS-CoV-2 [6]; VeroE6, drug present (-2,24) h)?
A: 1.731% and 1.694% and 2.365% and 2.435% and 2.361% and 2.315% and 1.913% and 1.91%

Q: What about the Response (SARS-CoV-2-nLUC [7]; Lonafarnib 0.15625 uM) of the same compound?
A: 2.22 and 4.213 and 2.074

Q: What about the Response (SARS-CoV-2-nLUC [7]; Lonafarnib 0.3125 uM) of the same compound?
A: 1.244 and 2.405 and 2.249

Q: And the Response (SARS-CoV-2-nLUC [7]; Lonafarnib 0.625 uM)?
A: -2.027 and 1.3173 and 0.3833

Q: And the Response (SARS-CoV-2-nLUC [7]; Lonafarnib 1.25 uM)?
A: 5.206 and 5.033 and 2.62

Q: And the Response (SARS-CoV-2-nLUC [7]; Lonafarnib 2.5 uM)?
A: 26.488 and 26.5645 and 16.3468

Q: What about the Response (SARS-CoV-2-nLUC [7]; Lonafarnib 5 uM) of the same compound?
A: 76.2414 and 75.9942 and 62.6493

Q: What about the “reduction of viral genome copy number in infected cells” value (SARS-CoV-2 [8]; 10 μM, VeroE6 and Calu3) of the same compound?
A: more than 90%

Q: And the “percentage genome copy number relative to DMSO” value (SARS-CoV-2 [8]; Fig 1D, 5 mM (printed))?
A: 15.7327% and 8.267% and 4.447%

Q: And the “percentage genome copy number relative to DMSO” value (SARS-CoV-2 [8]; Fig 1D, 10 mM (printed))?
A: 0.3388% and 0.169% and 0.1887%

Q: What about the “percentage genome copy number relative to DMSO” value (SARS-CoV-2 [8]; Fig 1E, 5 mM (printed)) of the same compound?
A: 1.7284% and 12.0506% and 10.6523% and 4.939%

Q: And the “percentage genome copy number relative to DMSO” value (SARS-CoV-2 [8]; Fig 1E, 10 mM (printed))?
A: 0.1445% and 0.1282% and 0.2571% and 0.1291%

Q: What about the “percentage of N-positive cells relative to DMSO” value ([9]; Fig 1B, 5 mM (printed)) of the same compound?
A: 45.291% and 39.2779% and 27.7255% and 32.1523% and 27.1799% and 44.2583% and 28.0879%

Q: And the “percentage of N-positive cells relative to DMSO” value ([9]; Fig 1B, 10 mM (printed))?
A: 6.293% and 7.566% and 7.349% and 6.272% and 7.2903% and 7.5535% and 6.442%

Q: What about the “percentage of N-positive cells relative to DMSO” value ([9]; Fig 1C, 5 mM (printed)) of the same compound?
A: 10.1344% and 5.318% and 6.858% and 5.707% and 14.6837% and 5.046% and 43.0964%

Q: What about the “percentage of N-positive cells relative to DMSO” value ([9]; Fig 1C, 10 mM (printed)) of the same compound?
A: 4.886% and 4.575% and 6.603% and 7.209% and 6.0224% and 5.548% and 4.54%

Q: What about the CC50 (Calu3 cells) of the same compound?
A: > 30 µM

Q: What about the relative luciferase signals ([10]; 0.3 (printed)) of the same compound?
A: 83.8904 and 99.372 and 100.719 and 105.145

Q: And the relative luciferase signals ([10]; 1 (printed))?
A: 76.0312 and 74.8493 and 82.9658 and 76.539

Q: And the relative luciferase signals ([10]; 3 (printed))?
A: 82.9427 and 55.6651 and 51.5871 and 56.5775

Q: What about the relative luciferase signals ([10]; 10 (printed)) of the same compound?
A: 30.6993 and 29.5083 and 34.9918 and 28.4711

Q: And the “% Genome” value [11]?
A: 3.11% and 3.81% and 4.35%
